Test results as given in patent publication US20100041089A1, “IMPROVED METHOD FOR DETECTING CHEMICAL […]” (priority 2006, published 2010).

Test system: yeast genes (expressed mRNA)
Test: DNA chip measurement of expressed mRNA of yeast genes after culture with a toxic chemical substance
Assay type: cell-based, Saccharomyces cerevisiae S288C
Method in brief: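 Two-hour exposure of growing S. cerevisiae S288C (YPD, 25° C) to a sublethal toxicant preceded RNA isolation. Fluorescent cDNA was hybridized to a whole-genome array; a treated-to-untreated signal ratio of two or more was taken as significant.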

Measured: The level of expressed mRNA in the presence of chemical substance/The level of expressed mRNA in the absence of chemical substance

COc1cc(CNC(=O)CCCCC=CC(C)C)ccc1O [(12), 8-Methyl-N-vanillyl-6-nonenamide]
3.5: yeast gene YLR008C, cultured two hours with substance
16.3: yeast gene YBR072W (stress protein genes)
0.7: yeast gene YBL001C | yeast gene YCR037C | yeast gene YDR019C | yeast gene YFL032W, cultured two hours with substance | yeast gene YGR130C, cultured two hours with substance | yeast gene YIL024C, cultured two hours with substance | yeast gene YIL167W | yeast gene YJL020C, cultured two hours with substance | yeast gene YNL281W, cultured two hours with substance | yeast gene YNR064C, cultured two hours with substance
2.3: yeast gene YKR075C, cultured two hours with substance
1.5: yeast gene YDL110C, cultured two hours with substance | yeast gene YDR411C, cultured two hours with substance | yeast gene YDR534C, cultured two hours with substance | yeast gene YFL010C, cultured two hours with substance | yeast gene YGL117W, cultured two hours with substance | yeast gene YHR029C, cultured two hours with substance | yeast gene YKL152C, cultured for two hours with substance
2.8: yeast gene YAL034C, cultured two hours with substance | yeast gene YDL174C, cultured for two hours with substance | yeast gene YOR382W, cultured two hours with substance
1.6: yeast gene YBR203W, cultured two hours with substance | yeast gene YGL062W, cultured for two hours with substance | yeast gene YGL121C, cultured two hours with substance | yeast gene YGR221C, cultured two hours with substance | yeast gene YHL038C, mitochondria-located protein gene, cultured two hours with substance | yeast gene YIL077C, cultured two hours with the substance | yeast gene YLR103C, DNA repair protein genes, cultured two hours with substance | yeast gene YLR194C, cultured two hours with substance | yeast gene YLR345W, cultured for two hours with substance
1.3: yeast gene YDR486C, cultured two hours with substance | yeast gene YGL053W, cultured two hours with substance | yeast gene YGL209W | yeast gene YGR282C | yeast gene YJL082W, cultured two hours with substance | yeast gene YJL151C, cultured two hours with substance | yeast gene YJR008W, cultured two hours with substance | yeast gene YNR068C, cultured two hours with substance | yeast gene YOL058W | yeast gene YPL222W, cultured two hours with substance | yeast gene YPR167C
2.2: yeast gene YHR179W, cultured for two hours with substance | yeast gene YMR090W, cultured two hours with substance
1.8: yeast gene YHR138C, cultured two hours with substance | yeast gene YLR350W, cultured two hours with substance | yeast gene YML054C, cultured for two hours with substance | yeast gene YMR191W, cultured two hours with substance | yeast gene YPL087W, cultured two hours with substance
4.3: yeast gene YDR070C, cultured two hours with substance
2.9: yeast gene YOL150C, cultured two hours with substance
2.0: yeast gene YGR142W, cultured two hours with substance | yeast gene YLR149C, cultured two hours with substance | yeast gene YMR315W, cultured two hours with substance | yeast gene YNL241C (stress protein genes)
2.1: yeast gene YDR476C, cultured two hours with substance | yeast gene YGR284C, cultured two hours with substance | yeast gene YOL031C, cultured two hours with substance
0.6: yeast gene YAL053W, cultured two hours with substance | yeast gene YJL186W, cultured two hours with substance | yeast gene YKL086W, cultured two hours with substance | yeast gene YMR009W, cultured two hours with substance
1.4: yeast gene YBL107C, cultured two hours with substance | yeast gene YDR391C, cultured two hours with substance | yeast gene YGR110W, cultured two hours with substance | yeast gene YGR146C, cultured two hours with substance | yeast gene YIL117C, cultured two hours with substance | yeast gene YOL162W, cultured two hours with substance
1.9: yeast gene YMR316W, cultured two hours with substance
0.9: yeast gene YBR222C | yeast gene YCR048W | yeast gene YDL204W, cultured two hours with substance | yeast gene YDR031W, cultured two hours with substance | yeast gene YDR410C | yeast gene YDR497C, metabolism protein genes | yeast gene YDR545W, cultured two hours with substance | yeast gene YER038C, cultured two hours with substance | yeast gene YER079W, cultured two hours with substance | yeast gene YER096W, metabolism protein genes | yeast gene YER106W, cultured two hours with substance | yeast gene YER175C, cultured two hours with substance | yeast gene YGL001C | yeast gene YGL115W (stress protein genes) | yeast gene YGL199C, cultured two hours with substance | yeast gene YGR055W, metabolism protein genes | yeast gene YGR154C, cultured two hours with substance | yeast gene YHR111W, metabolism protein genes | yeast gene YIL023C, cultured two hours with substance | yeast gene YJL165C (stress protein genes) | yeast gene YJR054W, cultured two hours with substance | yeast gene YKL213C, metabolism protein genes | yeast gene YKR091W, cultured two hours with substance | yeast gene YLR273C | yeast gene YLR348C, metabolism protein genes | yeast gene YNL045W, metabolism protein genes | yeast gene YNL074C, cultured two hours with substance | yeast gene YNL156C, cultured two hours with substance | yeast gene YNL331C | yeast gene YOL064C (stress protein genes) | yeast gene YOL117W, cultured two hours with substance | yeast gene YOL131W, cultured two hours with substance | yeast gene YOR130C, metabolism protein genes | yeast gene YPL194W (stress protein genes) | yeast gene YPL196W, cultured two hours with substance | yeast gene YPR023C, cultured two hours with substance | yeast gene YPR151C, cultured two hours with substance
1.7: yeast gene YBR256C | yeast gene YCL009C | yeast gene YER004W, cultured two hours with substance | yeast gene YER026C | yeast gene YMR184W, cultured two hours with substance
3.3: yeast gene YGR035C, cultured two hours with substance
4.2: yeast gene YLR346C, cultured two hours with substance
1.0: yeast gene YAL054C | yeast gene YDL222C, cultured two hours with substance | yeast gene YDR009W | yeast gene YDR330W, cultured two hours with substance | yeast gene YER158C, cultured two hours with substance | yeast gene YER163C, cultured two hours with substance | yeast gene YGR101W, cultured two hours with substance | yeast gene YHR209W, cultured two hours with substance | yeast gene YIL041W, cultured two hours with substance | yeast gene YJL057C, cultured two hours with substance | yeast gene YJL066C, cultured two hours with substance | yeast gene YJL152W, cultured two hours with substance | yeast gene YJL161W, cultured two hours with substance | yeast gene YJL171C, cultured two hours with substance | yeast gene YKL071W, cultured two hours with substance | yeast gene YKL151C, cultured two hours with substance | yeast gene YLR152C, cultured two hours with substance | yeast gene YNL044W, cultured two hours with substance | yeast gene YNL169C | yeast gene YNL190W, cultured two hours with substance | yeast gene YOL032W, cultured two hours with substance | yeast gene YOL036W, cultured two hours with substance | yeast gene YOL071W, cultured two hours with substance | yeast gene YOL082W, cultured two hours with substance | yeast gene YOR019W, cultured two hours with substance | yeast gene YOR197W, cultured two hours with substance | yeast gene YOR336W, metabolism protein genes | yeast gene YPL017C, metabolism protein genes | yeast gene YPR079W, cultured two hours with substance
3.2: yeast gene YNL211C, cultured two hours with substance
6.7: yeast gene YOR049C, cultured two hours with substance
3.9: yeast gene YDR406W (transport facilitation protein gene)
1.2: yeast gene YBL048W, cultured two hours with substance | yeast gene YDL072C, cultured two hours with substance | yeast gene YFL006W, cultured two hours with substance | yeast gene YMR097C, cultured two hours with substance | yeast gene YMR180C, cultured two hours with substance | yeast gene YOL083W, cultured two hours with substance
0.5: yeast gene YOR248W, cultured two hours with substance
0.4: yeast gene YJL108C, cultured two hours with substance | yeast gene YLR460C, cultured two hours with substance | yeast gene YMR215W, cultured two hours with the chemical substance
2.6: yeast gene YHL047C (transport facilitation protein gene)
3.6: yeast gene YHR054C, cultured two hours with substance
2.4: yeast gene YGR281W (transport facilitation protein gene) | yeast gene YJL052W, cultured for two hours with substance | yeast gene YMR102C, cultured two hours with substance
0.8: yeast gene YAR028W, cultured two hours with substance | yeast gene YBR273C, cultured two hours with substance | yeast gene YDR003W, cultured two hours with substance | yeast gene YDR511W, cultured two hours with substance | yeast gene YFL024C, cultured two hours with substance | yeast gene YGL037C, cultured two hours with substance | yeast gene YLR324W, cultured two hours with substance | yeast gene YML117W, cultured two hours with substance | yeast gene YMR095C, cultured two hours with substance | yeast gene YMR107W, cultured two hours with substance | yeast gene YNL115C, cultured two hours with substance | yeast gene YNL208W, cultured two hours with substance | yeast gene YNL300W, cultured two hours with substance | yeast gene YOL047C, cultured two hours with substance | yeast gene YPL206C, cultured two hours with substance
1.1: yeast gene YAL012W, metabolism protein genes | yeast gene YEL001C, cultured two hours with substance | yeast gene YER035W, cultured two hours with substance | yeast gene YGL047W, cultured two hours with substance | yeast gene YGL104C | yeast gene YGL136C, cultured two hours with substance | yeast gene YHR199C, cultured two hours with substance | yeast gene YIL087C, cultured two hours with substance | yeast gene YIL154C | yeast gene YJL149W, cultured two hours with substance | yeast gene YKL153W, cultured two hours with substance | yeast gene YKL195W, cultured two hours with substance | yeast gene YLR054C, cultured two hours with substance | yeast gene YLR387C, cultured two hours with substance | yeast gene YMR067C, cultured two hours with substance | yeast gene YMR295C, cultured two hours with substance | yeast gene YNL092W, cultured two hours with substance | yeast gene YNL104C, metabolism protein genes | yeast gene YNL234W, cultured two hours with substance | yeast gene YNL305C, cultured two hours with substance | yeast gene YNR033W, metabolism protein genes | yeast gene YOL126C, metabolism protein genes | yeast gene YOR099W, metabolism protein genes | yeast gene YPL052W, cultured two hours with substance
